From patent publication US8592456B2 (4SC Discovery GmbH, priority 2011, dated 2013)
Read-outs that look alike come from different tables or passages of the source.

Test system: PBMC (T cell proliferation)
Assay: T cell proliferation assay, PHA-stimulated human PBMC (BrdU ELISA)
Assay type: cell-based
Conditions: 48 hours, BrdU
How it was run: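 BrdU ELISA readout of proliferation at 48 hours. Cells: human PBMC from healthy donors in 10% dialyzed FCS/RPMI1640, 1×10^5 per well, activated by 2 μg/ml phytohaemagglutinin in the presence of compound.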

[1] = human PBMC, 2 μg/ml PHA, read-out: D: IC50 (Tcell proliferation)
[2] = PHA-stimulated human PBMC, column D, activity classes 1-4, read-out: IC50 (Tcell proliferation)

| Structure (SMILES) | IC50 [1] | IC50 [2] |
| --- | --- | --- |
| CCOC(=O)c1c(-c2c(Cl)cncc2Cl)noc1-c1cnn(-c2cccnc2)c1C(F)(F)F [Example B-12, ethyl 3-(3,5-dichloropyridin-4-yl)-5-(1-(pyridin-3-yl)-5-(trifluoromethyl)-1H-pyrazol-4-yl)isoxazole-4-carboxylate] | 100 to 1000 nM | – |
| Fc1ccccc1-n1ncc(-c2onc(-c3c(F)cccc3Cl)c2-c2ccoc2)c1C(F)(F)F [IB-9, 3-(2-chloro-6-fluorophenyl)-5-(1-(2-fluorophenyl)-5-(trifluoromethyl)-1H-pyrazol-4-yl)-4-(furan-3-yl)isoxazole] | – | 100 to 1000 nM |
| Fc1ccc(-n2ncc(-c3onc(-c4c(F)cccc4Cl)c3Br)c2C(F)(F)F)c(F)c1 [Example B-24, 4-bromo-3-(2-chloro-6-fluorophenyl)-5-(1-(2,4-difluorophenyl)-5-(trifluoromethyl)-1H-pyrazol-4-yl)isoxazole] | 1000 to 10000 nM | – |
| CNC(=O)c1c(-c2ccccc2Cl)noc1-c1cnn(-c2cccc(Cl)c2)c1C(F)(F)F [Example B-63, 3-(2-chlorophenyl)-5-(1-(3-chlorophenyl)-5-(trifluoromethyl)-1H-pyrazol-4-yl)-N-methylisoxazole-4-carboxamide] | 100 to 1000 nM | – |
| CCOC(=O)c1c(-c2c(F)cccc2Cl)noc1-c1cnn(-c2ccccc2C#N)c1C(F)(F)F [Example B-44, ethyl 3-(2-chloro-6-fluorophenyl)-5-(1-(2-cyanophenyl)-5-(trifluoromethyl)-1H-pyrazol-4-yl)-isoxazole-4-carboxylate] | 1000 to 10000 nM | – |
| CCOC(=O)c1c(-c2ccc(Cl)cc2Cl)noc1-c1cnn(-c2cccc(F)c2)c1C(F)(F)F [Example 112, ethyl 3-(2,4-dichlorophenyl)-5-(1-(3-fluorophenyl)-5-(trifluoromethyl)-1H-pyrazol-4-yl)isoxazole-4-carboxylate] | 100 to 1000 nM | – |
| COC(=O)c1c(-c2c(F)cccc2Cl)noc1-c1cnn(-c2ccc(OC(F)(F)F)cc2)c1C(F)(F)F [Example 33, methyl 3-(2-chloro-6-fluorophenyl)-5-(1-(4-(trifluoromethoxy)phenyl)-5-(trifluoromethyl)-1H-pyrazol-4-yl)isoxazole-4-carboxylate] | 1000 to 10000 nM | – |
| Fc1cccc(Cl)c1-c1noc(-c2cnn(-c3cccc(Cl)c3)c2C(F)(F)F)c1-c1ccoc1 [IB-7, 3-(2-chloro-6-fluorophenyl)-5-(1-(3-chlorophenyl)-5-(trifluoromethyl)-1H-pyrazol-4-yl)-4-(furan-3-yl)isoxazole] | – | < 10 nM |
| CCOC(=O)c1c(-c2ccncc2F)noc1-c1cnn(-c2cccc(F)c2)c1C(F)(F)F [Example B-14, ethyl 5-(1-(3-fluorophenyl)-5-(trifluoromethyl)-1H-pyrazol-4-yl)-3-(3-fluoropyridin-4-yl)isoxazole-4-carboxylate] | 1000 to 10000 nM | – |
| COC(=O)c1c(-c2ccccc2)noc1-c1cnn(-c2ccccc2F)c1C(F)(F)F [Example 61, methyl 5-(1-(2-fluorophenyl)-5-(trifluoromethyl)-1H-pyrazol-4-yl)-3-phenylisoxazole-4-carboxylate] | 1000 to 10000 nM | – |
| COC(=O)c1c(-c2c(F)cccc2Cl)noc1-c1cnn(-c2cccc(Cl)c2)c1 [Example 115, methyl 3-(2-chloro-6-fluorophenyl)-5-(1-(3-chlorophenyl)-1H-pyrazol-4-yl)isoxazole-4-carboxylate] | 1000 to 10000 nM | – |
| Fc1ccccc1-n1ncc(-c2onc(-c3c(F)cccc3Cl)c2-c2cnco2)c1C(F)(F)F [IB-28, 3-(2-chloro-6-fluorophenyl)-5-(1-(2-fluorophenyl)-5-(trifluoromethyl)-1H-pyrazol-4-yl)-4-(oxazol-5-yl)isoxazole] | – | 100 to 1000 nM |
| COC(=O)c1c(-c2ccccc2F)noc1-c1cnn(-c2cccc(F)c2)c1C(F)(F)F [Example 92, methyl 3-(2-fluorophenyl)-5-(1-(3-fluorophenyl)-5-(trifluoromethyl)-1H-pyrazol-4-yl)isoxazole-4-carboxylate] | 100 to 1000 nM | – |
| Cc1nnc(-c2c(-c3c(F)cccc3Cl)noc2-c2cnn(-c3ccccn3)c2C(F)(F)F)o1 [IB-26, 2-(3-(2-chloro-6-fluorophenyl)-5-(1-(pyridin-2-yl)-5-(trifluoromethyl)-1H-pyrazol-4-yl)isoxazol-4-yl)-5-methyl-1,3,4-oxadiazole] | – | 100 to 1000 nM |
| Fc1ccc(-n2ncc(-c3onc(-c4c(F)cccc4Cl)c3Br)c2C(F)(F)F)cc1 [Example B-28, 4-bromo-3-(2-chloro-6-fluorophenyl)-5-(1-(4-fluorophenyl)-5-(trifluoromethyl)-1H-pyrazol-4-yl)isoxazole] | 100 to 1000 nM | – |
| Fc1cccc(Cl)c1-c1noc(-c2cnn(-c3cccc(Cl)c3)c2C(F)(F)F)c1-c1ccco1 [IB-6, 3-(2-chloro-6-fluorophenyl)-5-(1-(3-chlorophenyl)-5-(trifluoromethyl)-1H-pyrazol-4-yl)-4-(furan-2-yl)isoxazole] | – | < 10 nM |
| NC(=O)c1c(-c2c(F)cccc2Cl)noc1-c1cnn(-c2cccc(Cl)c2)c1C(F)(F)F [Example 121, 3-(2-chloro-6-fluorophenyl)-5-(1-(3-chlorophenyl)-5-(trifluoromethyl)-1H-pyrazol-4-yl)isoxazole-4-carboxamide] | 1000 to 10000 nM | – |
| COCCn1ncc(-c2onc(-c3c(F)cccc3Cl)c2C(=O)OC)c1C(F)(F)F [Example 102, methyl 3-(2-chloro-6-fluorophenyl)-5-(1-(2-methoxyethyl)-5-(trifluoromethyl)-H-pyrazol-4-yl)isoxazole-4-carboxylate] | 100 to 1000 nM | – |
| Fc1cccc(Cl)c1-c1noc(-c2cnn(-c3ccncc3)c2C(F)(F)F)c1-c1ccoc1 [IB-24, 3-(2-chloro-6-fluorophenyl)-4-(furan-3-yl)-5-(1-(pyridin-4-yl)-5-(trifluoromethyl)-1H-pyrazol-4-yl)isoxazole] | – | 10 to 100 nM |
| CCOC(=O)c1c(-c2c(F)cccc2Cl)noc1-c1cnn(-c2cccc([N+](=O)[O-])c2)c1C(F)(F)F [Example B-90, ethyl 3-(2-chloro-6-fluorophenyl)-5-(1-(3-nitrophenyl)-5-(trifluoromethyl)-1H-pyrazol-4-yl)isoxazole-4-carboxylate] | 10 to 100 nM | – |
| CCOC(=O)c1c(-c2ccncc2F)noc1-c1cnn(-c2ccncc2)c1C(F)(F)F [Example B-3, ethyl 3-(3-fluoropyridin-4-yl)-5-(1-(pyridin-4-yl)-5-(trifluoromethyl)-1H-pyrazol-4-yl)isoxazole-4-carboxylate] | 100 to 1000 nM | – |
| CCOC(=O)c1c(-c2c(F)cccc2Cl)noc1-c1cnn(-c2ccc(NC(C)=O)cc2)c1C(F)(F)F [Example B-99, ethyl 5-(1-(4-acetamidophenyl)-5-(trifluoromethyl-1H-pyrazol-4-yl)-3-(2-chloro-6-fluorophenyl)isoxazole-4-carboxylate] | 1000 to 10000 nM | – |
| COC(=O)c1c(-c2c(F)cccc2Cl)noc1-c1cnn(-c2cccc(Cl)c2)c1C(F)(F)F [Example 11, methyl 3-(2-chloro-6-fluorophenyl)-5-(1-(3-chlorophenyl)-5-(trifluoromethyl)-1H-pyrazol-4-yl)isoxazole-4-carboxylate] | < 10 nM | – |
| N#Cc1c(-c2c(F)cccc2Cl)noc1-c1cnn(-c2cccc(F)c2)c1C(F)(F)F [Example 120, 3-(2-chloro-6-fluorophenyl)-5-(1-(3-fluorophenyl)-5-(trifluoromethyl)-1H-pyrazol-4-yl)isoxazole-4-carbonitrile] | 100 to 1000 nM | – |
